For data set [1], the target named is H1N1 neuraminidase (NA), group-1 (Influenza A virus, UniProt P03468). The experiment in a line: biochemical.
For data set [2], the system named is A/PR/8/34 (H1N1) virus in MDCK cells. The experiment in a line: microbe, parasite or virus in culture. The class given is cell-based, influenza A virus H1N1. The conditions noted are these: read-out: EC50 towards influenza virus H1N1.
Data set [3] relates to A/Wisconsin/67/05 (H3N2) virus in MDCK cells. Briefly: microbe, parasite or virus in culture. The class given is cell-based, influenza A virus H3N2. The conditions noted are these: for EC50: read-out: EC50 towards influenza virus H3N2.
Another data set can be described thus: in vitro. The settings on record: dog.
Setting [4] is: Influenza A virus, H1N1|PR/8, MDCK.

Broadly, the IC50 is the point on the concentration scale where inhibition reaches its midpoint. Usually EC50 stands for the concentration giving half of the maximal effect.

Like-named read-outs stand apart in the source and are kept apart here.

H1N1 neuraminidase (NA), group-1, sequence (P03468 36-454 limits assumed): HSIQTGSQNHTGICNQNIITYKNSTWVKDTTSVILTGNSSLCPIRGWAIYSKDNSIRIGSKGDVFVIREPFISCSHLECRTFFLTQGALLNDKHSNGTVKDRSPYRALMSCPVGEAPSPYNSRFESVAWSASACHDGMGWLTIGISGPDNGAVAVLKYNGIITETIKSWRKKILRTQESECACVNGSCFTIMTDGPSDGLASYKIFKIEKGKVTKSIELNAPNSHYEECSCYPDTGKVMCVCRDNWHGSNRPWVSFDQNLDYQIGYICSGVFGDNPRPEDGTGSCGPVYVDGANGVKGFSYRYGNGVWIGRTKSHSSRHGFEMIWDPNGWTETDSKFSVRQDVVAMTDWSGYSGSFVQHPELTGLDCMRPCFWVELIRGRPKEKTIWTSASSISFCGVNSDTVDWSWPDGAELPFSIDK

`CCC(CC)O[C@@H]1C=C(C(=O)O)C[C@H](NCc2ccc(N3CC4(CCN(C(=O)OC(C)(C)C)CC4)C3)cc2)[C@H]1NC(C)=O` [6c, (3R,4R,5S)-4-acetamido-5-((4–(7-(tert-butoxycarbonyl)-2,7-diazaspiro[3.5]nonan-2-yl)benzyl)amino)-3-(pentan-3-yloxy)cyclohex-1-ene-1-carboxylic acid] registered a half-inhibitory concentration (IC50) in data set [1] of 1400 ± 73 nM.
Same read-out and setting: then `CCC(CC)O[C@@H]1C=C(C(=O)O)C[C@H](NCc2ccc(-c3cnc(Cl)nc3)cc2)[C@H]1NC(C)=O` [3d, (3R,4R,5S)-4-acetamido-5-((4–(2-chloropyrimidin-5-yl)benzyl)amino)-3-(pentan-3-yloxy)cyclohex-1-ene-1-carboxylic acid], with 4340 ± 360 nM; and `CCC(CC)O[C@@H]1C=C(C(=O)O)C[C@H](NCc2ccc(N3CC4CCCC4C3)cc2)[C@H]1NC(C)=O` (stereo partly drawn) [6h, (3R,4R,5S)-4-acetamido-5-((4-(hexahydrocyclopenta[c]pyrrol-2(1H)-yl)benzyl)amino)-3-(pentan-3-yloxy)cyclohex-1-ene-1-carboxylic acid], with 300 ± 1.6 nM; and `CCC(CC)O[C@@H]1C=C(C(=O)O)C[C@H](NCc2ccc(N3CCC4(CC3)OCCO4)cc2)[C@H]1NC(C)=O` [6e, (3R,4R,5S)-5-((4–(1,4-dioxa-8-azaspiro[4.5]decan-8-yl)benzyl)amino)-4-acetamido-3-(pentan-3-yloxy)cyclohex-1-ene-1-carboxylic acid], with 1990 ± 190 nM.
The compound `CCC(CC)O[C@@H]1C=C(C(=O)O)C[C@H](NCc2ccc(N3CCC4(CCN(C(=O)OC(C)(C)C)C4)C3)cc2)[C@H]1NC(C)=O` (stereo partly drawn) [6b, (3R,4R,5S)-4-acetamido-5-((4–(7-(tert-butoxycarbonyl)-2,7-diazaspiro[4.4]nonan-2-yl)benzyl)amino)-3-(pentan-3-yloxy)cyclohex-1-ene-1-carboxylic acid] displayed an IC50 in data set [1] of 400 ± 33 nM. Against the preceding compound, the IC50 is about 5-fold lower.
In data set [1], `CCC(CC)O[C@@H]1C=C(C(=O)O)C[C@H](NCc2ccc(N3CCC[C@H]3C)cc2)[C@H]1NC(C)=O` [6k, (3R,4R,5S)-4-acetamido-5-((4-((R)-2-methylpyrrolidin-1-yl)benzyl)amino)-3-(pentan-3-yloxy)cyclohex-1-ene-1-carboxylic acid] registered an IC50 of 84 ± 7.2 nM. Also, in data set [2] (setting [4]), the EC50 came to 20 ± 10 nM. Further, in data set [3], the “fold activity enhancement over OSC against H3N2 virus” value is reported as around 3 fold and the “fold activity enhancement over zanamivir (ZA) against H3N2 virus” value is reported as around 2 fold. In addition, the concentration for a half-maximal effect (EC50) in data set [3] (Influenza A virus, H3N2, MDCK) is 120 ± 30 nM. Also, the CC50 in “in vitro” was above 250000 nM.
`CCC(CC)O[C@@H]1C=C(C(=O)O)C[C@H](NCc2ccc(N3CCC4(CC3)CN(C(=O)OC(C)(C)C)C4)cc2)[C@H]1NC(C)=O` [6a, (3R,4R,5S)-4-acetamido-5-((4–(2-(tert-butoxycarbonyl)-2,7-diazaspiro[3.5]nonan-7-yl)benzyl)amino)-3-(pentan-3-yloxy)cyclohex-1-ene-1-carboxylic acid] showed an IC50 in data set [1] of 3940 ± 110 nM.
In the case of `CCC(CC)O[C@@H]1C=C(C(=O)O)C[C@H](NCc2ccc(N3CC4CC4C3)cc2)[C@H]1NC(C)=O` (stereo partly drawn) [6g, (3R,4R,5S)-5-((4–(3-azabicyclo[3.1.0]hexan-3-yl)benzyl)amino)-4-acetamido-3-(pentan-3-yloxy)cyclohex-1-ene-1-carboxylic acid], the IC50 in data set [1] is 190 ± 9.6 nM. The EC50 in data set [2] (setting [4]) was 30 ± 30 nM; in data set [3] (Influenza A virus, H3N2, MDCK), 160 ± 80 nM. For the same compound, the “fold activity enhancement over zanamivir (ZA) against H3N2 virus” value in data set [3] is given as around 2 fold. Further, the CC50 in “in vitro” was above 250000 nM.
Turning to `CCC(CC)O[C@@H]1C=C(C(=O)O)C[C@H](NCc2ccc(N3CC4(CN(C(=O)OC(C)(C)C)C4)C3)cc2)[C@H]1NC(C)=O` [6d, (3R,4R,5S)-4-acetamido-5-((4–(6-(tert-butoxycarbonyl)-2,6-diazaspiro[3.3]heptan-2-yl)benzyl)amino)-3-(pentan-3-yloxy)cyclohex-1-ene-1-carboxylic acid], in data set [1], it took 3100 ± 240 nM to reach half-maximal inhibition (IC50).
Still for that read-out and setting: then `CCC(CC)O[C@@H]1C=C(C(=O)O)C[C@H](NCc2ccc(N3CC4C(C3)C4(C)C)cc2)[C@H]1NC(C)=O` (stereo partly drawn) [6f, (3R,4R,5S)-4-acetamido-5-((4–(6,6-dimethyl-3-azabicyclo[3.1.0]hexan-3-yl)benzyl)amino)-3-(pentan-3-yloxy)cyclohex-1-ene-1-carboxylic acid], with 430 ± 36 nM; and `CCC(CC)O[C@@H]1C=C(C(=O)O)C[C@H](NCc2ccc(-c3cncnc3)cc2)[C@H]1NC(C)=O` [3c, (3R,4R,5S)-4-acetamido-3-(pentan-3-yloxy)-5-((4-(pyrimidin-5-yl)benzyl)amino)cyclohex-1-ene-1-carboxylic acid], with 12100 ± 1100 nM.
The same measure, in the same setting: then `CCC(CC)O[C@@H]1C=C(C(=O)O)C[C@H](NCc2ccc(N3CCC3)cc2)[C@H]1NC(C)=O` [6n, (3R,4R,5S)-4-acetamido-5-((4-(azetidin-1-yl)benzyl)amino)-3-(pentan-3-yloxy)cyclohex-1-ene-1-carboxylic acid], with 140 ± 10 nM.
Still for that read-out and setting: to `CCC(CC)O[C@@H]1C=C(C(=O)O)C[C@H](NCc2ccc(N(C)CC)cc2)[C@H]1NC(C)=O` [6o, (3R,4R,5S)-4-acetamido-5-((4-(ethyl(methyl)amino)benzyl)amino)-3-(pentan-3-yloxy)cyclohex-1-ene-1-carboxylic acid] belongs 360 ± 18 nM; to `CCC(CC)O[C@@H]1C=C(C(=O)O)C[C@H](NCc2ccc(-c3c(C)nc(N)nc3C)cc2)[C@H]1NC(C)=O` [3e, (3R,4R,5S)-4-acetamido-5-((4–(2-amino-4,6-dimethylpyrimidin-5-yl)benzyl)amino)-3-(pentan-3-yloxy)cyclohex-1-ene-1-carboxylic acid], 8060 ± 480 nM.
As for `CC(=O)N[C@H]1[C@H]([C@H](O)[C@H](O)CO)OC(C(=O)O)=C[C@@H]1N=C(N)N` [ZA, zanamivir, reference compound], the EC50 in data set [2] (setting [4]) is […]; in data set [3] (Influenza A virus, H3N2, MDCK), 270 ± 30 nM. Besides, the CC50 in “in vitro” was above 250000 nM.
Consider `CCC(CC)O[C@@H]1C=C(C(=O)O)C[C@H](N)[C@H]1NC(C)=O` [OSC, oseltamivir carboxylate, reference compound], for which the EC50 amounted to […] in data set [2] and 360 ± 160 nM in data set [3]. In “in vitro”, the CC50 is above 250000 nM.
For `CCC(CC)O[C@@H]1C=C(C(=O)O)C[C@H](NCc2ccc(N3CC4CCCCC4C3)cc2)[C@H]1NC(C)=O` (stereo partly drawn) [6i, (3R,4R,5S)-4-acetamido-5-((4-(octahydro-2H-isoindol-2-yl)benzyl)amino)-3-(pentan-3-yloxy)cyclohex-1-ene-1-carboxylic acid], the IC50 in data set [1] was 150 ± 31 nM. In addition, the EC50 in data set [2] (setting [4]) came to 30 ± 30 nM; in data set [3] (Influenza A virus, H3N2, MDCK), 320 ± 80 nM. The CC50 in the data set “in vitro” was above 250000 nM.
